Source: publication PMC12464775, “Selective and Potent Peptide Binders of RNF43 for Wnt Signaling Inhibition” (ACS Central Science, 2025)
Bridge positions count the residues as written; N and C are the ends. Peptide text beside a SMILES is read from it. * marks the point of attachment. Biotin = O=C1N[C@H]2[C@H](CS[C@H]2CCCCC(=O)*)N1

Tests used:
ZNRF3 = assay: SPR binding to ZNRF3 (specificity); settings: for binding to ZNRF3: protein immobilized, untagged DCP injected
Protocol: (§1) SPR measurement was carried out using a Biacore S200 (Cytiva) instrument, with PBS-T (PBS with 0.05% Tween 20, pH 7.4) as the buffer. Biotinylated protein was captured on three sensor channels of Series S SA Sensors (Cytiva). The sensors were then blocked with 0.1 mg/mL biotin. DCPs were injected onto the sensor in a 3× concentration series. The data were double-referenced by subtracting the signal from a sensor channel coated with biotin only and the signal from a buffer injection. For data analysis, binding data were fitted using the manufacturer’s software. ,

human RNF43 = target: T1, human RNF43 (Homo sapiens, UniProt Q68DV7); assay: SPR binding of DCPs to immobilized human RNF43 ECD; settings: SPR KD; each round of affinity maturation versus its parent DCP
T1 construct: ECD of the human RNF43 protein was incubated with EZ-link-NHS-PEG4-biotin; biotin (chemical label, NHS-PEG4-biotin on amines, 1-2 per protein)
T1 sequence (Q68DV7 24-197 limits assumed): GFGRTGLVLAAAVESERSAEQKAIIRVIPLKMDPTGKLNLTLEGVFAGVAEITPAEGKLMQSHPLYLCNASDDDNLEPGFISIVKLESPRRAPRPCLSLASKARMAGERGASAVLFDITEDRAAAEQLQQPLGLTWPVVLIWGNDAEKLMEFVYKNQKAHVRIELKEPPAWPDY
Protocol: ECD of the human RNF43 protein was incubated with EZ-link-NHS-PEG4-biotin (Thermo Fisher, 1:1, 50 μM) for 1 h at room temperature (RT). The reaction was quenched by addition of 10 mM Glycine, followed by dialysis into phosphate buffered saline (PBS) overnight at 4 °C. Finally, the biotinylated protein was analyzed using LC-MS to ensure that each protein is labeled with 1–2 biotin molecules. ,
as §1

CC[C@H](C)[C@H](NC(=O)[C@@H]1CSSC[C@H](NC(=O)[C@@H](NC(=O)[C@H](Cc2c[nH]cn2)NC(=O)[C@H](CO)NC(=O)[C@H](Cc2ccc(O)cc2)NC(=O)[C@H](CC(=O)O)NC(=O)[C@H](Cc2c[nH]cn2)NC(=O)[C@@H]2CSSC[C@H](NC(=O)[C@H](CCC(N)=O)NC(=O)[C@H](CCC(=O)O)NC(=O)CCCC[C@@H]3SC[C@@H]4NC(=O)N[C@@H]43)C(=O)N[C@@H]([C@@H](C)O)C(=O)N[C@@H](CO)C(=O)N[C@@H]([C@@H](C)O)C(=O)N[C@@H](CCC(N)=O)C(=O)N[C@@H](CC(=O)O)C(=O)N[C@@H](CC(C)C)C(=O)N2)C(C)C)C(=O)N[C@H]2CSSC[C@H](NC(=O)[C@H](CC(=O)O)NC(=O)[C@H](CC(C)C)NC(=O)[C@@H]3CCCN3C(=O)[C@H](Cc3c[nH]c4ccccc34)NC2=O)C(=O)N[C@@H](CCCNC(=N)N)C(=O)N[C@@H](Cc2c[nH]c3ccccc23)C(=O)N[C@@H](C)C(=O)N[C@@H](C(C)C)C(=O)N[C@@H](CCCCN)C(=O)N[C@@H](Cc2ccc(O)cc2)C(=O)N[C@@H](CCC(N)=O)C(=O)N[C@@H](Cc2c[nH]c3ccccc23)C(=O)N[C@@H](Cc2ccccc2)C(=O)N[C@@H](Cc2c[nH]c3ccccc23)C(=O)N[C@@H](CC(=O)O)C(=O)N1)C(=O)NCC(=O)O [bio-GUR-1.6.12.2] (Biotin-EQCTSTQDLCHDYSHVCCWPLDCRWAVKYQWFWDCIG-OH; disulfide 3-10, 17-35, 18-23)
binding to ZNRF3, peptide immobilized (ZNRF3; bio-GUR-1.6.12.2 on streptavidin sensor): without binding to ZNRF3

CC[C@H](C)[C@H](NC(=O)[C@@H]1CSSC[C@H](NC(=O)[C@H](CCC(N)=O)NC(=O)[C@@H](NC(=O)[C@H](Cc2ccc(O)cc2)NC(=O)[C@@H](NC(=O)[C@H](CC(C)C)NC(=O)CNC(=O)[C@@H]2CSSC[C@H](NC(=O)[C@H](CCC(N)=O)NC(=O)[C@@H](N)CCC(=O)O)C(=O)N[C@@H](CC(=O)O)C(=O)N[C@@H](CCC(N)=O)C(=O)N[C@@H](CC(=O)O)C(=O)N[C@@H](C)C(=O)N[C@@H](CO)C(=O)N[C@@H](C)C(=O)N2)[C@@H](C)CC)[C@@H](C)O)C(=O)N[C@H]2CSSC[C@H](NC(=O)[C@H](CC(=O)O)NC(=O)[C@H](CC(C)C)NC(=O)[C@@H]3CCCN3C(=O)[C@H](Cc3c[nH]c4ccccc34)NC2=O)C(=O)N[C@@H](CCCNC(=N)N)C(=O)N[C@@H](Cc2c[nH]c3ccccc23)C(=O)N[C@@H](C)C(=O)N[C@@H](C(C)C)C(=O)N[C@@H](CCCCN)C(=O)N[C@@H](Cc2ccc(O)cc2)C(=O)N[C@@H](CCC(N)=O)C(=O)N[C@@H](Cc2c[nH]c3ccccc23)C(=O)N[C@@H](Cc2ccccc2)C(=O)N[C@@H](Cc2c[nH]c3ccccc23)C(=O)N[C@@H](CC(=O)O)C(=O)N1)C(=O)NCC(=O)O [GUR-1.6.12.12] (H-EQCDQDASACGLIYTQCCWPLDCRWAVKYQWFWDCIG-OH; disulfide 3-10, 17-35, 18-23)
binding to ZNRF3 (ZNRF3): lack of binding

CC[C@H](C)[C@H](NC(=O)[C@@H]1CSSC[C@@H]2NC(=O)[C@H](CC(=O)O)NC(=O)[C@H](CC(C)C)NC(=O)[C@H](Cc3ccc(O)cc3)NC(=O)[C@H](Cc3ccc(O)cc3)NC(=O)[C@@H]3CCCN3C(=O)[C@H]([C@@H](C)CC)NC(=O)[C@@H]3CSSC[C@H](NC(=O)[C@H](CCC(=O)O)NC(=O)[C@H](CC(C)C)NC(=O)[C@@H]4CCCN4C(=O)[C@H](CCC(=O)O)NC(=O)[C@H](CSSC[C@H](NC(=O)[C@@H](N)CCC(N)=O)C(=O)N[C@@H](C(C)C)C(=O)N[C@@H](CCCCN)C(=O)N[C@@H](CCCCN)C(=O)N[C@@H](CC(=O)O)C(=O)N[C@@H](CCC(=O)O)C(=O)N[C@@H](CC(C)C)C(=O)N3)NC2=O)C(=O)N[C@@H](CCCNC(=N)N)C(=O)N[C@@H](Cc2c[nH]c3ccccc23)C(=O)N[C@@H](C)C(=O)N[C@@H](C(C)C)C(=O)N[C@@H](CCCCN)C(=O)N[C@@H](Cc2ccc(O)cc2)C(=O)N[C@@H](CCC(N)=O)C(=O)N[C@@H](Cc2c[nH]c3ccccc23)C(=O)N[C@@H](Cc2ccccc2)C(=O)N[C@@H](Cc2c[nH]c3ccccc23)C(=O)N[C@@H](CC(=O)O)C(=O)N1)C(=O)NCC(=O)O [GUR-1.6] (H-QCVKKDELCIPYYLDCCEPLECRWAVKYQWFWDCIG-OH; disulfide 2-17, 9-22, 16-34; N-terminus assumed)
improvement in affinity for RNF43 over the previous generation (human RNF43): 10 fold

CC[C@H](C)[C@H](NC(=O)[C@@H]1CSSC[C@H](NC(=O)[C@H](CCC(N)=O)NC(=O)[C@H](CO)NC(=O)[C@H](Cc2ccc(O)cc2)NC(=O)[C@H](CCCCN)NC(=O)[C@H](Cc2ccccc2)NC(=O)[C@H](CC(N)=O)NC(=O)[C@@H]2CSSC[C@H](NC(=O)[C@H](CCC(N)=O)NC(=O)[C@@H](N)CCC(=O)O)C(=O)N[C@@H](CC(=O)O)C(=O)N[C@@H](CCC(N)=O)C(=O)N[C@@H]([C@@H](C)O)C(=O)N[C@@H](CC(N)=O)C(=O)N[C@@H](CC(C)C)C(=O)N[C@@H](Cc3ccccc3)C(=O)N2)C(=O)N[C@H]2CSSC[C@H](NC(=O)[C@H](CC(=O)O)NC(=O)[C@H](CC(C)C)NC(=O)[C@@H]3CCCN3C(=O)[C@H](Cc3c[nH]c4ccccc34)NC2=O)C(=O)N[C@@H](CCCNC(=N)N)C(=O)N[C@@H](Cc2c[nH]c3ccccc23)C(=O)N[C@@H](C)C(=O)N[C@@H](C(C)C)C(=O)N[C@@H](CCCCN)C(=O)N[C@@H](Cc2ccc(O)cc2)C(=O)N[C@@H](CCC(N)=O)C(=O)N[C@@H](Cc2c[nH]c3ccccc23)C(=O)N[C@@H](Cc2ccccc2)C(=O)N[C@@H](Cc2c[nH]c3ccccc23)C(=O)N[C@@H](CC(=O)O)C(=O)N1)C(=O)NCC(=O)O [GUR-1.6.12.4] (H-EQCDQTNLFCNFKYSQCCWPLDCRWAVKYQWFWDCIG-OH; disulfide 3-10, 17-35, 18-23)
binding to ZNRF3 (ZNRF3): lack of binding

CC[C@H](C)[C@H](NC(=O)[C@@H]1CSSC[C@@H]2NC(=O)[C@H](CC(=O)O)NC(=O)[C@H](CC(C)C)NC(=O)[C@H](Cc3ccc(O)cc3)NC(=O)[C@H](Cc3ccc(O)cc3)NC(=O)[C@@H]3CCCN3C(=O)[C@H]([C@@H](C)CC)NC(=O)[C@@H]3CSSC[C@H](NC(=O)[C@H](CC(=O)O)NC(=O)[C@H](CC(C)C)NC(=O)[C@@H]4CCCN4C(=O)[C@H](Cc4c[nH]c5ccccc45)NC(=O)[C@H](CSSC[C@H](NC(=O)[C@@H](N)CCC(N)=O)C(=O)N[C@@H](C(C)C)C(=O)N[C@@H](CCCCN)C(=O)N[C@@H](CCCCN)C(=O)N[C@@H](CC(=O)O)C(=O)N[C@@H](CCC(=O)O)C(=O)N[C@@H](CC(C)C)C(=O)N3)NC2=O)C(=O)N[C@@H](CCCNC(=N)N)C(=O)N[C@@H](Cc2c[nH]c3ccccc23)C(=O)N[C@@H](C)C(=O)N[C@@H](C(C)C)C(=O)N[C@@H](CCCCN)C(=O)N[C@@H](Cc2ccc(O)cc2)C(=O)N[C@@H](CCC(N)=O)C(=O)N[C@@H](Cc2c[nH]c3ccccc23)C(=O)N[C@@H](Cc2ccccc2)C(=O)N[C@@H](Cc2c[nH]c3ccccc23)C(=O)N[C@@H](CC(=O)O)C(=O)N1)C(=O)NCC(=O)O [GUR-1.6.12] (H-QCVKKDELCIPYYLDCCWPLDCRWAVKYQWFWDCIG-OH; disulfide 2-17, 9-22, 16-34; N-terminus assumed)
improvement in affinity for RNF43 over the previous generation (human RNF43): slightly improved

CC[C@H](C)[C@H](NC(=O)[C@@H]1CSSC[C@H](NC(=O)[C@H](CO)NC(=O)[C@H](Cc2c[nH]cn2)NC(=O)[C@@H](NC(=O)[C@@H]2CCCN2C(=O)[C@H](CCC(N)=O)NC(=O)[C@@H](NC(=O)[C@@H]2CSSC[C@H](NC(=O)[C@H](CCC(N)=O)NC(=O)[C@@H](N)CCC(=O)O)C(=O)N[C@@H](CCCNC(=N)N)C(=O)N[C@@H](CCC(=O)O)C(=O)N[C@@H](Cc3c[nH]cn3)C(=O)N[C@@H](Cc3ccccc3)C(=O)N[C@@H](Cc3c[nH]cn3)C(=O)N[C@@H](CC(=O)O)C(=O)N2)C(C)C)[C@@H](C)CC)C(=O)N[C@H]2CSSC[C@H](NC(=O)[C@H](CC(=O)O)NC(=O)[C@H](CC(C)C)NC(=O)[C@@H]3CCCN3C(=O)[C@H](Cc3c[nH]c4ccccc34)NC2=O)C(=O)N[C@@H](CCCNC(=N)N)C(=O)N[C@@H](Cc2c[nH]c3ccccc23)C(=O)N[C@@H](C)C(=O)N[C@@H](C(C)C)C(=O)N[C@@H](CCCCN)C(=O)N[C@@H](Cc2ccc(O)cc2)C(=O)N[C@@H](CCC(N)=O)C(=O)N[C@@H](Cc2c[nH]c3ccccc23)C(=O)N[C@@H](Cc2ccccc2)C(=O)N[C@@H](Cc2c[nH]c3ccccc23)C(=O)N[C@@H](CC(=O)O)C(=O)N1)C(=O)NCC(=O)O [GUR-1.6.12.16] (H-EQCREHFHDCVQPIHSCCWPLDCRWAVKYQWFWDCIG-OH; disulfide 3-10, 17-35, 18-23)
binding to ZNRF3 (ZNRF3): lack of binding
